Test results from US6387907B1, “Use of serotonin agonists to alleviate disordered breathing episodes in a mammal” (The Trustees of the University of Pennsylvania, priority 1997, dated 2002).

Experiments:
Assay type in all cases: in vivo, English bulldog
[1] = test system: English bulldogs; experiment: Waking oxyhemoglobin saturation (SaO2) after i.v. serotonin antagonist; settings: for mean SaO2: mean±SE
Experimental: (§1) All studies were conducted using an unrestrained dog, either housed within a well-ventilated, electronically shielded, clear Plexiglass™ recording chamber or seated atop a table in the recording room. In either case, an investigator remained with the dog throughout the study to observe the dog's head and neck movements and to document the behavioral state of the dog. EMG signals were band-pass filtered at 50 to 2,000 Hertz. DIA EMG signals were passed through an analog EKG blanker (CWE EKG blanker; CWE, Ardmore, Pa.) and then through a third-order Paynter filter (CWE MA) having a 100-millisecond time constant to obtain a moving average of the DIA EMG. Signals of the SH and GH EMG were also passed through Paynter filters with the same time constants (100 ms) to obtain moving averages of these signals. Oxyhemoglobin saturation was measured continuously with a Biox IIA oximeter attached to the dog's pinna. Signals for the GH EMG, GH moving average (MA), SH EMG, SH MA, DIA EMG, DIA MA, and oxyhemoglobin saturations were recorded polygraphically (10 millimeters per second) using a chart recorder with high frequency response, i.e., as much as 10 kHz (Gould ES1000; Gould Instruments, Cleveland, Ohio). Signals were also recorded on analog tape using an eight-channel FM tape recorder (A. R. Vetter, Roseburg, Pa.).
(§2) After obtaining baseline recordings of all variables for at least 5 minutes during quiet wakefulness and after obtaining recordings during the 5 minutes following administration of a saline control injection, 0.25 to 0.50 milligrams per kilogram body weight of one of the serotonin antagonists was administered to each dog through a peripheral intravenous line. All variables were continuously recorded. Injections were repeated every 6 minutes either until a total dose of 1 milligram per kilogram body weight had been administered or until the oxygen saturations fell below 85%. These limits were deemed to ensure the dogs' safety, based on an initial study using one dog. This dog, EBD-G was hypoxic at baseline and developed profound reductions in UAW muscle activity with desaturations to 75% after a total dose of 1.0 milligram per kilogram body weight of methysergide. The interval between repeated injections was selected to be 6 minutes to allow for 5 minute sampling periods for each dose. The duration of action of serotonin antagonists is known to be greater than 60 minutes (Bredberg et al., supra; Devaud et al., supra).
The effects of ritanserin and methysergide on oxyhemoglobin saturations were analyzed in a similar fashion; i.e., repeated measures of ANOVA for baseline and drug dose conditions. Oxyhemoglobin saturation was measured every 10 scans.

[2] = test system: English bulldogs; experiment: Diaphragm (DIA) EMG activity during wakefulness after i.v. serotonin antagonist
Experimental: (§3) Five diaphragm electromyographic (DIA EMG) electrodes were implanted in the costal musculature of the right hemidiaphragm 7 to 9 centimeters lateral to the xyphoid process. Three other electrodes were embedded into the right sternohyoid (SH) muscle and, three more were embedded into the right geniohyoid (GH) muscle. Both SH and GH muscles are readily palpable in the English bulldog.
as §1, §2
The effects of serotonin antagonists on diaphragm activity were similarly analyzed. Briefly, the measures of diaphragm activity were the peak amplitudes for all respiratory bursts in each condition. […] Acquisition of these measures has also been previously described (Hendricks et al., 1991, Am. Rev. Respir. Dis. 144:1112-1120). Mean values across all respiratory bursts of a 5 minute sample period were determined for each dog, and these values were used to perform repeated measures of ANOVA comparing baseline values with post-administration values.

[3] = test system: English bulldogs; experiment: Upper airway dilator muscle (GH, SH) EMG activity during wakefulness after i.v. serotonin antagonist; settings: mean±SE; for GH peak amplitude, mean: baseline 11.86±2.17; for SH amplitude: baseline 14.41±3.93
Excerpt: Following the baseline sleep study to document sleep-disordered breathing, each dog underwent a surgical procedure for the implantation of recording electrodes. For this procedure, dogs were premedicated with 5 to 10 micrograms per kilogram body weight atropine sulfate intramuscularly. In the cases of two bulldogs experiencing severe sleep-disordered breathing, intubation and general anesthesia were thought to pose a significant risk for postoperative respiratory failure. These two dogs were therefore sedated only using 20 to 40 micrograms per kilogram body weight oxymorphone administered intramuscularly. The six remaining dogs were anesthetized initially with sodium thiopental (15 to 30 milligrams per kilogram body weight) administered intravenously. The dogs were intubated and maintained under general anesthesia using 0.5 to 2.5% (v/v) inhalational halothane throughout the procedure.
Recording electrodes were implanted for the study of diaphragm and upper airway dilator muscle activity. Electrodes were fashioned from 0.7 millimeter multi-stranded Teflon-coated stainless steel wire. The insulation was stripped from 5 to 8 millimeters at the proximal tip. The proximal tip of each electrode was implanted transcutaneously into the relevant musculature using methods described by Basmajian et al. (1962, J. Appl. Physiol. 17:839).
as §3
Two ground electrodes were embedded transcutaneously contacting both the occipital skull and dorsal neck musculature. Distal tips of all electrodes were soldered onto a 25-pin Winchester-type connector. Electrodes and the connector were secured to each dog with elastic adhesive dressings over the torso and neck.
as §1
The effects of serotonin antagonists on upper airway dilator muscle activity and breathing during wakefulness were assessed. Serotonin antagonists which were administered were methysergide maleate and ritanserin.
Ritanserin is a relatively selective serotonin antagonist at types 1C and 2 serotonin receptors (Devaud et al., 1992, J. Neurochem. 59:1459-1466). Ritanserin was selected for study on the basis that the IC and 2 subtypes of serotonin receptors appear to be involves in serotonin facilitation of hypoglossal motoneurons in vivo (Kugin et al., supra). […]

[4] = test system: English bulldogs; experiment: Direct observation of behavior after serotonin antagonists; settings: i.v. during quiet wakefulness; several dogs
Excerpt: The behavior of the dogs was observed directly throughout this study and for several hours following the last injection by one investigator seated adjacent the dog. The investigator documented both behavioral state and movement and helped the dog to maintain wakefulness throughout the study.

[5] = test system: English bulldogs; experiment: Respiratory timing from DIA moving average signals
Excerpt: Respiratory timing variables were obtained from the DIA MA signals, using methods previously described to determine inspiratory time (T1), expiratory time (TE), total time of a respiratory burst (Ttot), and the duty cycle ratio (T1/Ttot) (Hendricks et al., 1987, J. Appl. Physiol. 63:1344-1350; Hendricks et al., 1991, Am Rev. Respir. Dis. 144:1112-1120).

[6] = test system: English bulldogs; experiment: Cine CT imaging of the upper airway before and after ritanserin; settings: 0.5 mg/kg i.v.
Experimental: The effect of administering a serotonin antagonist on upper airway dimensions during a respiratory cycle was determined by performing cinematic computed tomography (cine CT) on dogs before and after administration of the antagonists. Cine CT allows both high spatial and temporal resolution (Shepard et al., 1990, In: Proceedings of the First International Symposium on Sleep and Respiration, New York, 273-282; Schwab et al., 1993, Am. Rev. Respir. Dis. 148:1385-1400), and has been used to define dynamic changes in the upper airways of humans in relation to the phases of the respiratory cycle (Schwab et al., 1993, Am. Rev. Respir. Dis. 148:1385-1400; Galvin et al., 1989, Radiology 171:775-778; Schwab et al., 1993, J. Appl. Physiol. 74:1504-1514). An Imatron C-100 ultrafast scanner (Imatron Inc., South San Francisco, Calif.) was used for these studies.
Dogs were studied during wakefulness. All dogs were trained prior to the study to lie quietly on a table similar to the CT scanner table for periods as long as one hour. However, to maintain constant head and body position throughout the study, each dog wore a nylon vest secured to the table at the shoulder and hips. Lateral radiographs of the neck were performed initially so that the head and neck were positioned with a 110 to 130 degree angle between the hard palate and the upper trachea.
Once the angle was confirmed, the head was gently secured in place to the scanner table with elastic dressing tape. With the dog comfortably secured in place, a scout filming of the airways was performed with 40 consecutive 3-millimeter-thick coronal slices imaged from the region of the nasopharynx through the larynx. For each dog, these images were used to select four standard areas of study for all dogs. […] For each dog, the areas which were imaged included the posterior nasopharynx (at the level of pterygoid fossa in the dog), the retropalatal high area (at the midhyoid arch level), the retropalatal low area (at the level of the anterior hyoid bone), and the larynx.
Prior to imaging, each dog was connected as described above for monitoring geniohyoid, sternohyoid, and diaphragm muscle activity, respiratory inductive plethysmography, and oxyhemoglobin saturation. During quiet breathing, 20 consecutive images at 0.4-second intervals were obtained simultaneously at each of the four described levels. This program allowed for the description of the dynamic changes in airway dimensions over four to seven breaths at all four anatomic levels simultaneously. The image acquisition time for each radiograph was 50 milliseconds, and images were 3 millimeters thick. Imaging studies were rejected and repeated if the respiratory activity was interrupted at any time during imaging by swallowing, sighing (defined for this study as a diaphragm burst 200% greater in amplitude than the previous 10 bursts), licking, or panting, the latter being defined as a respiratory frequency of more than 60 diaphragmatic respiratory bursts per minute. Cine CT scanner impulses marking the timing for all images were transmitted to the polygraph with continuing signals of all objective measures, i.e., GH, SH, and DIA EMG activity, oxyhemoglobin saturation, and chest wall plethysmography. […]
This study quantified the effects of the serotonin antagonist, ritanserin, on the cross-sectional area of the upper airway and its dynamic changes during the respiratory cycle. […]

[7] = 0.50 mg/kg i.v., baseline ritanserin 92.1±0.6, methysergide 90.3±2.7
[8] = 0.50 mg/kg i.v., mean±SE, baseline ritanserin 17.63±2.79, methysergide 7.07±2.37
[9] = 0.50 mg/kg i.v., baseline ritanserin 14.41±3.93, methysergide 5.75±0.18

CC[C@@H](CO)NC(=O)[C@@H]1C=C2c3cccc4c3c(cn4C)C[C@H]2N(C)C1 [methysergide]
mean SaO2 [1, 7]: 86.6±2.0%
mean SaO2 ([1]; 1.0 mg/kg i.v. cumulative, baseline 90.3±2.7): 85.6±0.9%
oxygen desaturations in dog EBD-G (hypoxic at baseline) ([1]; total dose 1.0 mg/kg i.v., single dog, initial study): 75%
DIA peak amplitude as percentage of the baseline value ([2]; 0.50 mg/kg i.v.): 67.7%
DIA peak amplitude, mean [2, 8]: 4.74±0.25 arbitrary units
DIA peak amplitude as percentage of the baseline value ([2]; 1.0 mg/kg i.v. cumulative): 39.6%
DIA peak amplitude, mean ([2]; 1.0 mg/kg i.v. cumulative, mean±SE, three dogs, baseline 7.07±2.37): 2.80±1.48 arbitrary units
SH peak amplitude [3, 9]: 3.83±0.28 arbitrary units
SH peak amplitude ([3]; 1.00 mg/kg i.v. cumulative, four dogs, baseline 5.75±0.18): 2.77±0.38 arbitrary units
behavior (head and neck movements, alertness) [4]: increase in staring behaviors
TE reduced by ([5]; 0.50 mg/kg, three dogs): 33.8%
TI reduced by ([5]; 0.50 mg/kg, three dogs): 12.7%
Ttot reduced by ([5]; 0.50 mg/kg, three dogs): 23.9%

Cc1nc2sccn2c(=O)c1CCN1CCC(=C(c2ccc(F)cc2)c2ccc(F)cc2)CC1 [ritanserin]
mean SaO2 ([1]; 0.25 mg/kg i.v., baseline 92.1±0.6): 88.5±0.8%
mean SaO2 [1, 7]: 87.6±1.2%
mean SaO2 ([1]; 0.75 mg/kg i.v. cumulative, baseline 92.1±0.6): 88.6±0.5%
DIA peak amplitude as percentage of the baseline value ([2]; 0.25 mg/kg i.v.): 85.76±3.30%
DIA peak amplitude, mean ([2]; 0.25 mg/kg i.v., mean±SE, six dogs, baseline 17.63±2.79): 15.03±2.45 arbitrary units
percent suppression of DIA activity ([2]; 0.25 mg/kg i.v., mean±SE, quiet waking, dogs with GH data): 17.0±3.6%
DIA peak amplitude as percentage of the baseline value ([2]; 0.50 mg/kg i.v.): 95.22±5.81%
DIA peak amplitude, mean [2, 8]: 16.12±2.30 arbitrary units
DIA peak amplitude as percentage of the baseline value ([2]; 0.75 mg/kg i.v. cumulative): 87.33±5.18%
DIA peak amplitude, mean ([2]; 0.75 mg/kg i.v. cumulative, mean±SE, six dogs, baseline 17.63±2.79): 14.98±2.06 arbitrary units
GH peak amplitude, mean ([3]; 0.25 mg/kg i.v., four dogs): 6.42±1.12 arbitrary units
SH amplitude ([3]; 0.25 mg/kg i.v.): 10.90±2.99 arbitrary units
percent suppression of GH activity ([3]; 0.25 mg/kg i.v., quiet waking): 40.0±6.5%
GH peak amplitude, mean ([3]; 0.50 mg/kg i.v. cumulative, four dogs): 7.23±2.01 arbitrary units
SH peak amplitude [3, 9]: 9.08±1.32 arbitrary units
GH peak amplitude, mean ([3]; 0.75 mg/kg i.v. cumulative, four dogs): 7.44±2.48 arbitrary units
SH amplitude ([3]; 0.75 mg/kg i.v. cumulative): 7.43±0.55 arbitrary units
TI/Ttot (duty cycle ratio) ([5]; 0.25 mg/kg, mean±SE, six dogs, baseline 0.50±0.02, NS): 0.52 ± 0.02
TI (inspiratory time) ([5]; 0.25 mg/kg, mean±SE, six dogs, baseline 1.31±0.20, p 0.02): 1.03 ± 0.17 s
TE (expiratory time) ([5]; 0.25 mg/kg, mean±SE, six dogs, baseline 1.32±0.20, p 0.04): 1.00 ± 0.23 s
Ttot (total time of a respiratory burst) ([5]; 0.25 mg/kg, mean±SE, six dogs, baseline 2.60±0.30, p 0.03): 2.02 ± 0.30 s
GH peak amplitude suppressed by ([6]; mean values for the two dogs): 51.1±1.8%
chest wall respiratory movement amplitude reduced by ([6]; two dogs): 59.9%
upper airway parameters during expiration ([6]; two dogs): no significant changes
mean SaO2 after administration ([6]; two dogs, before 92.8±1.8): 86.2±4.7%
airway CSA during both stages of inspiration ([6]; two dogs, individual ANOVAs p<0.01): significant reduction
